From ChEMBL document CHEMBL5226385, “The Antiangiogenic and Antitumor Effects of Scoparasin B in Non-Small-Cell Lung Cancer” (J Nat Prod, 2023)
Activity calls are given as the source filed them. The rule behind the calls is not given here.

Columns and labels:
[1] = target: Vascular endothelial growth factor receptor 2 (Homo sapiens) (UniProt P35968); assay: Inhibition of VEGF-A-mediated VEGFR2 signaling pathway in human HMEC-1 cells assessed as reduction in VEGFR2 phosphorylation at Tyr1175 residue at 5 to 15 nM incubated for 36 hrs by western blot analysis; assay type: cell-based; conditions: dose 5-15 nM
Chain of Vascular endothelial growth factor receptor 2 (Homo sapiens) (P35968 whole entry): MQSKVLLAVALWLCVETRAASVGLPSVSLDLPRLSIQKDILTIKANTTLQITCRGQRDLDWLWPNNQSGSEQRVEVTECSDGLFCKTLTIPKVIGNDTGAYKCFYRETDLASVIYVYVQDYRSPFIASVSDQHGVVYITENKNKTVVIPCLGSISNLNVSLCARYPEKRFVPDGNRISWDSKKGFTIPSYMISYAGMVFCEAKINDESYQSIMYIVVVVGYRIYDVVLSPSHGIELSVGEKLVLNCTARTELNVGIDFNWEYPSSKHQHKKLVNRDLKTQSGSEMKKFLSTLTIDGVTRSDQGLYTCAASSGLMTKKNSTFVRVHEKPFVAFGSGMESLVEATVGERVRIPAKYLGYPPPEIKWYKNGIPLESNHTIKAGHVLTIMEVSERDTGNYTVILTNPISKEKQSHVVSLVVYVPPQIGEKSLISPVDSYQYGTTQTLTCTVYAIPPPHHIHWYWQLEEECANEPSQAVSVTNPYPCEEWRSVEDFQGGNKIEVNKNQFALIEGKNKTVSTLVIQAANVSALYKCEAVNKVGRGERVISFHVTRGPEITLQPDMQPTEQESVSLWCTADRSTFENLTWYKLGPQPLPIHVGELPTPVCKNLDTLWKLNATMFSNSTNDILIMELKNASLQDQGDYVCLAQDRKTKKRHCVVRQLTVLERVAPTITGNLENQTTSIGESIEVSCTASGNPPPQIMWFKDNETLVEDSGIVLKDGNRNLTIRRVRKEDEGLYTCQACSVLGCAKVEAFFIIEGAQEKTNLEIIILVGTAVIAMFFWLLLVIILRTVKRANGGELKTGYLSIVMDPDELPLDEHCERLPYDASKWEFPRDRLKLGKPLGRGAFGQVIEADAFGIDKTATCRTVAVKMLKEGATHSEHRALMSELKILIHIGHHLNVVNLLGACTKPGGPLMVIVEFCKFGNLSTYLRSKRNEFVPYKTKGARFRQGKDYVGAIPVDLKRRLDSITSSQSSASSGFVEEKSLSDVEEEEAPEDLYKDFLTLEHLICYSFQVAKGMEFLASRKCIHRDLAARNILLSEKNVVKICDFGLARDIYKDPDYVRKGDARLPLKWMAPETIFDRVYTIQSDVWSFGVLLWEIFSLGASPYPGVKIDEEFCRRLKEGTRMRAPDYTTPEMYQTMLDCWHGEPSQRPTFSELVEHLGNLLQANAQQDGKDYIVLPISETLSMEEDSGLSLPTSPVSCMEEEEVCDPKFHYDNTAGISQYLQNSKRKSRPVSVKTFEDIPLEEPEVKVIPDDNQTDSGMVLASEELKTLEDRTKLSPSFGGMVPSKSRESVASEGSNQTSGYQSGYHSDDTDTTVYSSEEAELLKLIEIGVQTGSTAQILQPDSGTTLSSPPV

[2] = Toxicity against BALB/c nude mouse xenografted with human NCI-H1299 cells assessed as morphological changes in spleen at 0.75 to 1.5 mg/kg, ip administered every other day for 20 days by Hematoxylin and eosin staining based inverted microscopic analysis; assay type: organism-based; conditions: in vivo, 480 h, dose 0.75-1.5 mg/kg, time 20 day
NCI-H1299 = assay: Downregulation of N-Cadherin mRNA expression in human NCI-H1299 cells at 5 to 15 nM incubated for 24 hrs by qPCR analysis; assay type: functional, cell-based; conditions: dose 5-15 nM
Rattus norvegicus = species on record: Rattus norvegicus; assay: Ex vivo antiangiogenic activity against Sprague-Dawley rat aorta rings assessed as reduction in microvessel sprouting from aortic rings by measuring reduction in total microvessel lengths measured after 6 days by microscopic analysis; assay type: functional; conditions: dose 5-20 nM, time 6.0 day

SMILES: COc1ccc(C[C@@H]2NC(=O)[C@@]34OC(=O)O/C=C/[C@@](C)(O)C(=O)[C@@H](C)C/C=C/[C@H]3[C@H](O)[C@](C)(O)[C@@H](C)[C@@H]24)cc1 [SCOPARASIN B]
- inhibition [1]: Active
- Activity [2]: Non-Toxic
- inhibition (NCI-H1299): Active
- Activity (Rattus norvegicus): Dose-Dependent Effect
